This passage reports EC50 results from US9181305B2, “Exendin-4 peptide analogues” (SANOFI, priority 2012, dated 2015).

The target of this assay is T1, human GLP-1 receptor (hGLP-1 R) (Homo sapiens, UniProt P43220).
T1 construct: expressed in transfected cells; host or cells: HEK-293
As to the kind of experiment: cAMP response (HTRF) of HEK-293 cells stably expressing human GLP-1 receptor. The class given is cell-based. The following applies: HEK-293 cells expressing human GLP-1 receptor, cAMP formation. On the procedure: cAMP content of cells was determined using a kit from Cisbio Corp. (cat. no. 62AM4PEC) based on HTRF (Homogenous Time Resolved Fluorescence). For preparation, cells were split into T175 culture flasks and grown overnight to near confluency in medium (DMEM/10% FBS). Medium was then removed and cells washed with PBS lacking calcium and magnesium, followed by proteinase treatment with accutase (Sigma-Aldrich cat. no. A6964). Detached cells were washed and resuspended in assay buffer (1×HBSS; 20 mM HEPES, 0.1% BSA, 2 mM IBMX) and cellular density determined. […] For measurement, 25 μl of test compound in assay buffer was added to the wells, followed by incubation for 30 minutes at room temperature.
For orientation: In TR-FRET formats the signal depends on donor and acceptor labels being close together.

*1 amine or outer side, *2 acyl side, *3 side chain or, on linkers, in order; H or OH if unused. Where a SMILES comes first, the peptide text is derived from it. Side-chain parts run from the residue outwards. [ ]: non-standard residue; d: D form. The star is where a group is joined. γGlu = O=C(O)[C@H](CCC(=O)[*:2])N[*:1]; Palmitoyl = CCCCCCCCCCCCCCCC(=O)*; Aib = CC(C)(N)C(=O)O

T1 sequence (P43220 24-463): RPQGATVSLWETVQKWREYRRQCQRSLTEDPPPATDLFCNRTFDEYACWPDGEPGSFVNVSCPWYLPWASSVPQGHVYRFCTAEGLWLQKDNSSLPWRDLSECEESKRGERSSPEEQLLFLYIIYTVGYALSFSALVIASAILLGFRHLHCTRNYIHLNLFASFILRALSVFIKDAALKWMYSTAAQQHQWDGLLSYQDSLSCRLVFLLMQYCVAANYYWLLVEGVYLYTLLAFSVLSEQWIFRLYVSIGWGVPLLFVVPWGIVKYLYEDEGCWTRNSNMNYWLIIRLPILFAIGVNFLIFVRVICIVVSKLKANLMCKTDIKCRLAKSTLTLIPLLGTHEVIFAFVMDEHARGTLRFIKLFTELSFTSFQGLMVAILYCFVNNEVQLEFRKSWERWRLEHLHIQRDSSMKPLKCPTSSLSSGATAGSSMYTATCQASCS

For `CCCCCCCCCCCCCCCC(=O)N[C@@H](CCC(=O)NCCCC[C@H](NC(=O)[C@@H]1CCCN1C(=O)[C@@H]1CCCN1C(=O)[C@@H]1CCCN1C(=O)[C@H](C)NC(=O)CNC(=O)[C@H](CO)NC(=O)[C@H](CO)NC(=O)[C@@H]1CCCN1C(=O)CNC(=O)CNC(=O)[C@H](CC(N)=O)NC(=O)[C@H](CCCCN)NC(=O)[C@H](CC(C)C)NC(=O)[C@H](Cc1c[nH]c2ccccc12)NC(=O)[C@H](CCC(=O)O)NC(=O)[C@@H](NC(=O)[C@H](Cc1ccccc1)NC(=O)[C@H](CC(=O)O)NC(=O)[C@H](CCC(N)=O)NC(=O)[C@H](C)NC(=O)[C@H](CCCNC(=N)N)NC(=O)[C@H](CCCNC(=N)N)NC(=O)[C@H](CO)NC(=O)[C@H](CC(=O)O)NC(=O)[C@H](CCSC)NC(=O)[C@H](CCC(N)=O)NC(=O)[C@H](CCCCN)NC(=O)[C@H](CO)NC(=O)[C@H](CC(C)C)NC(=O)[C@H](CC(=O)O)NC(=O)[C@H](CO)NC(=O)[C@@H](NC(=O)[C@H](Cc1ccccc1)NC(=O)[C@@H](NC(=O)CNC(=O)[C@H](CCC(N)=O)NC(=O)[C@H](CO)NC(=O)[C@@H](N)Cc1c[nH]cn1)[C@@H](C)O)[C@@H](C)O)[C@@H](C)CC)C(N)=O)C(=O)O` [(6)], the response was half-maximal at 3.1 pM (EC50).

As to `CC[C@H](C)[C@H](NC(=O)[C@H](Cc1ccccc1)NC(=O)[C@H](CC(=O)O)NC(=O)[C@H](CCCCN)NC(=O)[C@H](C)NC(=O)[C@H](CCCNC(=N)N)NC(=O)[C@H](CCCNC(=N)N)NC(=O)[C@H](CCC(=O)O)NC(=O)[C@H](CCC(=O)O)NC(=O)[C@H](CCSC)NC(=O)[C@H](CCC(N)=O)NC(=O)[C@H](CCCCN)NC(=O)[C@H](CO)NC(=O)[C@H](CC(C)C)NC(=O)[C@H](CC(=O)O)NC(=O)[C@H](CO)NC(=O)[C@@H](NC(=O)[C@H](Cc1ccccc1)NC(=O)[C@@H](NC(=O)CNC(=O)[C@H](CCC(N)=O)NC(=O)[C@H](CO)NC(=O)[C@@H](N)Cc1c[nH]cn1)[C@@H](C)O)[C@@H](C)O)C(=O)N[C@@H](CCC(=O)O)C(=O)N[C@@H](Cc1c[nH]c2ccccc12)C(=O)N[C@@H](CC(C)C)C(=O)N[C@@H](CCCCN)C(=O)N[C@@H](CC(N)=O)C(=O)NCC(=O)NCC(=O)N1CCC[C@H]1C(=O)N[C@@H](CO)C(=O)N[C@@H](CO)C(=O)NCC(=O)N[C@@H](C)C(=O)N1CCC[C@H]1C(=O)N1CCC[C@H]1C(=O)N1CCC[C@H]1C(=O)N[C@@H](CO)C(N)=O` [(16)] (H-HSQGTFTSDLSKQMEERRAKDFIEWLKNGGPSSGAPPPS-NH2), the EC50 (usually the midpoint of the concentration-response curve) is 7.6 pM.

`CCCCCCCCCCCCCCCC(=O)NCCCC[C@H](NC(=O)[C@H](CO)NC(=O)[C@@H]1CCCN1C(=O)[C@@H]1CCCN1C(=O)[C@@H]1CCCN1C(=O)[C@H](C)NC(=O)CNC(=O)[C@H](CO)NC(=O)[C@H](CO)NC(=O)[C@@H]1CCCN1C(=O)CNC(=O)CNC(=O)[C@H](CC(N)=O)NC(=O)[C@H](CCCCN)NC(=O)[C@H](CC(C)C)NC(=O)[C@H](Cc1c[nH]c2ccccc12)NC(=O)[C@H](CCC(=O)O)NC(=O)[C@@H](NC(=O)[C@H](Cc1ccccc1)NC(=O)[C@H](CC(=O)O)NC(=O)[C@H](CCC(N)=O)NC(=O)[C@H](C)NC(=O)[C@H](CCCNC(=N)N)NC(=O)[C@H](CCCNC(=N)N)NC(=O)[C@H](CO)NC(=O)[C@H](CC(=O)O)NC(=O)[C@H](CCSC)NC(=O)[C@H](CCC(N)=O)NC(=O)[C@H](CCCCN)NC(=O)[C@H](CO)NC(=O)[C@H](CC(C)C)NC(=O)[C@H](CC(=O)O)NC(=O)[C@H](CO)NC(=O)[C@@H](NC(=O)[C@H](Cc1ccccc1)NC(=O)[C@@H](NC(=O)CNC(=O)[C@H](CCC(N)=O)NC(=O)[C@@H](CO)NC(=O)[C@@H](N)Cc1c[nH]cn1)[C@@H](C)O)[C@@H](C)O)[C@@H](C)CC)C(N)=O` [(26)] came in with a 50% effective concentration (EC50) of 9.7 pM.

Take `CC[C@H](C)[C@H](NC(=O)[C@H](Cc1ccccc1)NC(=O)[C@H](CC(=O)O)NC(=O)[C@H](CCC(N)=O)NC(=O)[C@H](C)NC(=O)[C@H](CCCNC(=N)N)NC(=O)[C@H](CCCNC(=N)N)NC(=O)[C@H](CO)NC(=O)[C@H](CC(=O)O)NC(=O)[C@H](CCSC)NC(=O)[C@H](CCC(N)=O)NC(=O)[C@H](CCCCN)NC(=O)[C@H](CO)NC(=O)[C@H](CC(C)C)NC(=O)[C@H](CC(=O)O)NC(=O)[C@H](CO)NC(=O)[C@@H](NC(=O)[C@H](Cc1ccccc1)NC(=O)[C@@H](NC(=O)CNC(=O)[C@H](CCC(N)=O)NC(=O)[C@H](C)NC(=O)[C@@H](N)Cc1c[nH]cn1)[C@@H](C)O)[C@@H](C)O)C(=O)N[C@@H](CCC(=O)O)C(=O)N[C@@H](Cc1c[nH]c2ccccc12)C(=O)N[C@@H](CC(C)C)C(=O)N[C@@H](CCCCN)C(=O)N[C@@H](CC(N)=O)C(=O)NCC(=O)NCC(=O)N1CCC[C@H]1C(=O)N[C@@H](CO)C(=O)N[C@@H](CO)C(=O)NCC(=O)N[C@@H](C)C(=O)N1CCC[C@H]1C(=O)N1CCC[C@H]1C(=O)N1CCC[C@H]1C(=O)N[C@@H](CO)C(N)=O` [(39)] (H-HAQGTFTSDLSKQMDSRRAQDFIEWLKNGGPSSGAPPPS-NH2): it took 4.6 pM to reach a half-maximal effect (EC50). This EC50 is about 2.1-fold lower than that of the compound before.

For the compound `CCCCCCCCCCCCCCCC(=O)N[C@@H](CCC(=O)NCCCC[C@H](NC(=O)[C@@H]1CCCN1C(=O)[C@@H]1CCCN1C(=O)[C@@H]1CCCN1C(=O)[C@H](C)NC(=O)CNC(=O)[C@H](CO)NC(=O)[C@H](CO)NC(=O)[C@@H]1CCCN1C(=O)CNC(=O)CNC(=O)[C@H](CC(N)=O)NC(=O)[C@H](CCCCN)NC(=O)[C@H](CC(C)C)NC(=O)[C@H](Cc1c[nH]c2ccccc12)NC(=O)[C@H](CCC(=O)O)NC(=O)[C@@H](NC(=O)[C@H](Cc1ccccc1)NC(=O)[C@H](CC(=O)O)NC(=O)[C@H](CCC(N)=O)NC(=O)[C@H](C)NC(=O)[C@H](CCCNC(=N)N)NC(=O)[C@H](CCCNC(=N)N)NC(=O)[C@H](CO)NC(=O)[C@H](CC(=O)O)NC(=O)[C@H](CCSC)NC(=O)[C@H](CCC(N)=O)NC(=O)[C@H](CCCCN)NC(=O)[C@H](CO)NC(=O)[C@H](CC(C)C)NC(=O)[C@H](CC(=O)O)NC(=O)[C@H](CO)NC(=O)[C@@H](NC(=O)[C@H](Cc1ccccc1)NC(=O)[C@@H](NC(=O)CNC(=O)[C@H](CCC(N)=O)NC(=O)[C@@H](CO)NC(=O)[C@@H](N)Cc1c[nH]cn1)[C@@H](C)O)[C@@H](C)O)[C@@H](C)CC)C(N)=O)C(=O)O` [(51)], it took 5.8 pM to reach a half-maximal effect (EC50). This EC50 and that of the compound before are within 1.5-fold of each other.

`CCCCCCCCCCCCCCCC(=O)N[C@@H](CCC(=O)NCCCC[C@H](NC(=O)[C@@H]1CCCN1C(=O)[C@@H]1CCCN1C(=O)[C@@H]1CCCN1C(=O)[C@H](C)NC(=O)CNC(=O)[C@H](CO)NC(=O)[C@H](CO)NC(=O)[C@@H]1CCCN1C(=O)CNC(=O)CNC(=O)[C@H](CC(N)=O)NC(=O)[C@H](CCCCN)NC(=O)[C@H](CC(C)C)NC(=O)[C@H](Cc1c[nH]c2ccccc12)NC(=O)[C@H](CCC(=O)O)NC(=O)[C@@H](NC(=O)[C@H](Cc1ccccc1)NC(=O)[C@H](CC(=O)O)NC(=O)[C@H](CCC(N)=O)NC(=O)[C@H](C)NC(=O)[C@H](CCCNC(=N)N)NC(=O)[C@H](CCCNC(=N)N)NC(=O)[C@H](CO)NC(=O)[C@H](CC(=O)O)NC(=O)[C@H](CCSC)NC(=O)[C@H](CCC(N)=O)NC(=O)[C@H](CCCCN)NC(=O)[C@H](CO)NC(=O)[C@H](CC(C)C)NC(=O)[C@H](CC(=O)O)NC(=O)[C@H](CO)NC(=O)[C@@H](NC(=O)[C@H](Cc1ccccc1)NC(=O)[C@@H](NC(=O)CNC(=O)[C@H](CCC(N)=O)NC(=O)C(C)(C)NC(=O)[C@@H](N)Cc1c[nH]cn1)[C@@H](C)O)[C@@H](C)O)[C@@H](C)CC)C(N)=O)C(=O)O` [(52)] (H-H[Aib]QGTFTSDLSKQMDSRRAQDFIEWLKNGGPSSGAPPPK([γGlu-Palmitoyl])-NH2) displayed an EC50 of 4.1 pM.

Compound `CCCCCCCCCCCCCCCC(=O)N[C@@H](CCC(=O)NCCCC[C@H](NC(=O)[C@H](CO)NC(=O)[C@@H]1CCCN1C(=O)[C@@H]1CCCN1C(=O)[C@@H]1CCCN1C(=O)[C@H](C)NC(=O)CNC(=O)[C@H](CO)NC(=O)[C@H](CO)NC(=O)[C@@H]1CCCN1C(=O)CNC(=O)CNC(=O)[C@H](CC(N)=O)NC(=O)[C@H](CCCCN)NC(=O)[C@H](CC(C)C)NC(=O)[C@H](Cc1c[nH]c2ccccc12)NC(=O)[C@H](CCC(=O)O)NC(=O)[C@@H](NC(=O)[C@H](Cc1ccccc1)NC(=O)[C@H](CC(=O)O)NC(=O)[C@H](CCC(N)=O)NC(=O)[C@H](C)NC(=O)[C@H](CCCNC(=N)N)NC(=O)[C@H](CCCNC(=N)N)NC(=O)[C@H](CO)NC(=O)[C@H](CC(=O)O)NC(=O)[C@H](CCSC)NC(=O)[C@H](CCC(N)=O)NC(=O)[C@H](CCCCN)NC(=O)[C@H](CO)NC(=O)[C@H](CC(C)C)NC(=O)[C@H](CC(=O)O)NC(=O)[C@H](CO)NC(=O)[C@@H](NC(=O)[C@H](Cc1ccccc1)NC(=O)[C@@H](NC(=O)CNC(=O)[C@H](CCC(N)=O)NC(=O)C(C)(C)NC(=O)[C@@H](N)Cc1c[nH]cn1)[C@@H](C)O)[C@@H](C)O)[C@@H](C)CC)C(N)=O)C(=O)O` [(59)] (H-H[Aib]QGTFTSDLSKQMDSRRAQDFIEWLKNGGPSSGAPPPSK([γGlu-Palmitoyl])-NH2) yielded a concentration for a half-maximal effect (EC50) of 2.9 pM.
